Measurements from patent US20220281846A1, “COMPOUNDS AND COMPOSITIONS FOR THE TREATMENT OF RESPIRATORY DISEASES” (THE UNIVERSITY OF MELBOURNE, priority 2018, published 2022).

How the values were obtained:
[1] = In vivo determination of whole blood-to-plasma ratio; parameters: species or system male C57BL/6 mice; settings: mouse blood, 15 min and 1 h post-dose
Method: Blood was collected from mice at 15 min and 1 h post-dose of each compound for the purposes of determining the whole blood-to-plasma (B/P) ratio. […] No adverse reactions or compound-related side effects observed in any mice during the 24 h sampling period after dosing any of the compounds. Plasma samples were also taken from 2 mice that were not administered test compound for use as analytical tool.
Analysis of B/P partitioning samples was conducted similarly and quantified against calibration standards samples prepared using a 1:1 v/v mixture of blank mouse blood and plasma. The matrix matched B/P partitioning samples and standards were processed using protein precipitation with acetonitrile as described above.
In Vivo Determination of Whole Blood-to-Plasma Ration
Blood was collected via cardiac puncture (whilst under gaseous isoflurane anaesthesia) into tubes containing heparin and stabilisation cocktail. The haematocrit was determined via centrifugation (13000×g for 4 min using a Clemets® Microhematocrit centrifuge and Safecap® Plain Self-sealing Mylar Wrapped capillary tubes), and values ranged from 38% to 40% for PF670462 and 38% to 44% for ZH3-138. […]
The B/P ratio was obtained by dividing the average measured concentration in blood by the average concentration measured in plasma following centrifugation of whole blood.

[2] = molecular target: T1, MINK/MINK1 (Homo sapiens, UniProt Q8N4C8); experiment: Kinase inhibition assay (HotSpot), MINK/MINK1; format: biochemical; settings: 10 μM ATP, 10-dose IC50 mode; read-out: Compound IC50 (M) MINK/MINK1
T1 construct: purchased Reaction Biology Corp

[3] = test system: TGF-β-induced IL-11 in primary human parenchymal fibroblast cells (pFbs); experiment: Human parenchymal fibroblast cell assay, TGF-β-induced IL-11 (ELISA); format: cell-based; settings: compounds 0.1-10 μM 30 min prior to TGF-β1, 16-24 hours, 4.00* is assigned to compounds that failed to cause 50% or more inhibition at 10 µM, read-out: pIC50 IL-11 suppression (converted)
Method: Human Parenchymal Fibroblast Cell Assay
Primary human parenchymal fibroblast cells (pFbs) were cultured from parenchyma of lung resection specimens and from non-transplanted lungs of donors without chronic respiratory disease. pFbs were passaged in Dulbecco's Modified Eagle's Media (DMEM) containing 10% (v/v) heat-inactivated fetal calf serum (FCS), 15 mM HEPES, 0.2% (v/v) sodium bicarbonate, 2 mM L-glutamine, 1% (v/v) non-essential amino acids, 1% (v/v) sodium pyruvate, 2.5 μg/mL amphotericin, 5 IU/mL penicillin and 50 μg/mL streptomycin. In some experiments the human lung fibroblast cell line, MRC5 (sourced from ATTC) was used as indicated. The MRC5 line was maintained under the same conditions as described for the pFb.
Prior to experimentation, pFb were incubated in serum-free DMEM containing 0.25% bovine serum albumin (BSA) and insulin-transferrin-selenium-containing supplement (Monomed A; CSL, Parkville, Melbourne, Australia). The cells were incubated with small molecular CK1δ inhibitors (0.1-10 μM) for 30 min prior to […] TGF-β1 (R&D Systems, Minneapolis, Minn.) and the incubation continued for 16-24 hours prior to harvest of supernatant for detection of immunoreactive IL-11. Stock solutions were made as 10 mM in 100% DMSO and diluted to the required concentration in medium containing 0.1% DMSO (final concentration).
Supernatants were collected for measurement of IL-11 (R&D DuoSet, DY218) by ELISA following the manufacturers' instructions. Generally, capture antibodies were initially diluted to the recommended concentrations using PBS buffer, and then used to coat the wells of 96-well microplates (Greiner, #655061) by adding 50 μL/well and incubated overnight at room temperature. Next day, solutions were discarded and wells were washed 3 times with wash buffer (PBS containing 0.1% (v/v) Tween-20) prior to the addition of 200 μL of blocking solution (PBS containing 1% (v/v) BSA) for 1 hour to block non-specific sites. Plates were then washed 3 times with wash buffer and 50 μL of samples or standards were then added to wells and incubated for 2 hours at room temperature. After the incubation, plates were washed 3 times with wash buffer and 50 μL of detection antibodies were added to wells and incubated for 2 hours at room temperature. Plates were then washed 3 times before adding streptavidin-conjugated horseradish peroxidase (at the recommended concentrations) for 45 min. Plates were then washed 5 times with wash buffer and 100 μL TMB substrate solution (equal parts A and B, BD Biosciences) was added to each well until sufficient signals emerged. The reactions were inactivated by adding 100 μL sulphuric acid (2M H2SO4). The absorbance was measured at 450 nm using the Multiskan Ascent® plate reader. The absorbance of the cytokine standards was fitted to a logistic equation, allowing the concentrations of cytokine in samples to be determined.
PIC50 values (the negative log of the concentration suppressing IL-11 level by 50%) for inhibition of TGF-β-induced IL-11 were interpolated from the linear regression of log concentration small molecule versus IL-11 level (Table 4 and FIG. 2).

[4] = molecular target: T2, ERBB4/HER4 (Homo sapiens, UniProt Q15303); experiment: Kinase inhibition assay (HotSpot), ERBB4/HER4; format: biochemical; settings: 10 μM ATP, 10-dose IC50 mode; read-out: Compound IC50 (M) ERBB4/HER4
T2 construct: purchased Reaction Biology Corp

[5] = molecular target: T3, human recombinant Casein kinase 18 (CK1δ) (Homo sapiens, UniProt P48730); experiment: Kinase inhibition assay (HotSpot, Reaction Biology Corp), CK1δ; format: biochemical; settings: 10 μM ATP, 10-dose IC50 mode; read-out: Compound IC50 (M) CK1δ
T3 construct: purchased Reaction Biology Corp
T3 sequence (P48730 whole entry): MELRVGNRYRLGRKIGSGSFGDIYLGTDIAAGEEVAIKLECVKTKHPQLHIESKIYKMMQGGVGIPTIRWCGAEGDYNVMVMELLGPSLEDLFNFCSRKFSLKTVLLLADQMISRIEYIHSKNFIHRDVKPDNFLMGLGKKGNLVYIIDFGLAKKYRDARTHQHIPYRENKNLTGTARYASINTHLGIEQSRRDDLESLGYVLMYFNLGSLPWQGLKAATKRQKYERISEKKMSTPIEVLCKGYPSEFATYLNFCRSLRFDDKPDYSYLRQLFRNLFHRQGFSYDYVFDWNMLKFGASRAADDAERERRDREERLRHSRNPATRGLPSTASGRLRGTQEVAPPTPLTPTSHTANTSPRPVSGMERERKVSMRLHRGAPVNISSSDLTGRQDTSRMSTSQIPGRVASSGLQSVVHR

T2 sequence (Q15303 26-1308): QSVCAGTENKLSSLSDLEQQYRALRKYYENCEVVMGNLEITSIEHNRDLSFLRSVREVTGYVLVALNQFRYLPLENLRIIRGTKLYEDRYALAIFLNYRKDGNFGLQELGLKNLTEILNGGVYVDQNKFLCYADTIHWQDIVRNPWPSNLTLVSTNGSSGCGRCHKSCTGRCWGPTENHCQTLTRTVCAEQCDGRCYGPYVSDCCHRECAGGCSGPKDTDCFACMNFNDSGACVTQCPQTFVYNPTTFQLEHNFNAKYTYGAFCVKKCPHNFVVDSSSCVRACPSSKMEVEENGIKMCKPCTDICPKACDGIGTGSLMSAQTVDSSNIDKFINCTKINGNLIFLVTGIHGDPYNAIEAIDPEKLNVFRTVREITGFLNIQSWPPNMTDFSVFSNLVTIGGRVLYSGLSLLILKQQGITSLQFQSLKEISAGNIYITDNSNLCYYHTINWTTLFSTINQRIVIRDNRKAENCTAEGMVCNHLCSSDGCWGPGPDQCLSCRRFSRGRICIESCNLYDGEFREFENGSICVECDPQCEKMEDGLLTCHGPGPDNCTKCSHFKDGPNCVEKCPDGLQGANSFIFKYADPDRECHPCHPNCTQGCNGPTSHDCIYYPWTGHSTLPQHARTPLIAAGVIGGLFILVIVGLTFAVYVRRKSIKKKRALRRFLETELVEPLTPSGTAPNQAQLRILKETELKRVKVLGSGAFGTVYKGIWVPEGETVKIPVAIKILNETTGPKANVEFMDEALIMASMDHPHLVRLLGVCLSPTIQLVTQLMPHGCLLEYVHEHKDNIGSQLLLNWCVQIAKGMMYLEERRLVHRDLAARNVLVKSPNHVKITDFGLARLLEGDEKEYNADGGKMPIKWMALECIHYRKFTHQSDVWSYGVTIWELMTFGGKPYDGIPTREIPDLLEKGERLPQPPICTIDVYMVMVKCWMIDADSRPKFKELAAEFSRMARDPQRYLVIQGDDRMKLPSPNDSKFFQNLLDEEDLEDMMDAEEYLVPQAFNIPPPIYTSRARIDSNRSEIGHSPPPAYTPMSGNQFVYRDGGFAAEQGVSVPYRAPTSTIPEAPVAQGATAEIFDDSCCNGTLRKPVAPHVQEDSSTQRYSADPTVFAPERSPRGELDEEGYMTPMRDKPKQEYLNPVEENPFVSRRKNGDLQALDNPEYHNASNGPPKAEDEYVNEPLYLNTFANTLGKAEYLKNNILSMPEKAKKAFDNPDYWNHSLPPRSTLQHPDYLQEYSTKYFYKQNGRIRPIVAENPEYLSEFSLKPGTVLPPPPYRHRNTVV
T1 sequence (Q8N4C8 whole entry): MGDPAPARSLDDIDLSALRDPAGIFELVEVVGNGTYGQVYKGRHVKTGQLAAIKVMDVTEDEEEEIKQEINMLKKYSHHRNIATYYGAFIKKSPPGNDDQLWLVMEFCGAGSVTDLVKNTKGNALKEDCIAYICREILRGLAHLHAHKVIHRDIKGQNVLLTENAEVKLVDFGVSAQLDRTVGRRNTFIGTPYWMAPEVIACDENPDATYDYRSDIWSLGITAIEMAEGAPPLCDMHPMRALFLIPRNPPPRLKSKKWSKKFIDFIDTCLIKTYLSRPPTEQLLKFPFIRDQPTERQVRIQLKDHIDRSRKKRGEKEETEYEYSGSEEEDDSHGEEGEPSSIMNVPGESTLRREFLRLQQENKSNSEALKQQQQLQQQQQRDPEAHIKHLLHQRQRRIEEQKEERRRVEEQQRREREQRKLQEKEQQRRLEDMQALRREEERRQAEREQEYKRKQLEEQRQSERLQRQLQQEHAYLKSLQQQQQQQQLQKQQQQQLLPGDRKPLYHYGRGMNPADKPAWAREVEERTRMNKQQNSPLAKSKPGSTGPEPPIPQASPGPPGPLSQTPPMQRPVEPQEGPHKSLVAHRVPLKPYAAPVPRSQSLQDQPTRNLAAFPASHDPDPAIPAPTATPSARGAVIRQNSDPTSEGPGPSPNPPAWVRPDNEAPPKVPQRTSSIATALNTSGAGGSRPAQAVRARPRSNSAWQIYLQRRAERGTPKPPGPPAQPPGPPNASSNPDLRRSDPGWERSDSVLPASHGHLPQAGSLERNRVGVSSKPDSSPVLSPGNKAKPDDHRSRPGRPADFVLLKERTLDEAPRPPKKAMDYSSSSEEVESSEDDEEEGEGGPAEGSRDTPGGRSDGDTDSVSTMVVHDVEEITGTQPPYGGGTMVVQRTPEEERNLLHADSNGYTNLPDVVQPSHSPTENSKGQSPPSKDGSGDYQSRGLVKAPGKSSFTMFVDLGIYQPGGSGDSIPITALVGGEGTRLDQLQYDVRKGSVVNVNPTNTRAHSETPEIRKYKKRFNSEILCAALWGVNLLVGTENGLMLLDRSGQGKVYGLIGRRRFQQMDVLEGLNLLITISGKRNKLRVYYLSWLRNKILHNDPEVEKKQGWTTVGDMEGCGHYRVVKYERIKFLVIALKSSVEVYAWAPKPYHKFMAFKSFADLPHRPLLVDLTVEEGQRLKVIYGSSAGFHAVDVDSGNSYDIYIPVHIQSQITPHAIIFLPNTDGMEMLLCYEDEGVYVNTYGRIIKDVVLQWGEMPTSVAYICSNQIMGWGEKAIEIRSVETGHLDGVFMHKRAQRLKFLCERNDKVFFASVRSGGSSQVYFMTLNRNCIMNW

apparent whole blood-to-plasma ratio (B/P) [1]	IC50 [2] [M]	blood plasma ratio ([1]; male, C57BL/6, whole blood and plasma, read-out: apparent whole blood-to-plasma ratio (B/P))	IC50 [4] [M]	IC50 [5] [M]	Structure (SMILES)	IC50 [3] [µM]
1.0					Nc1nccc(-c2c(-c3ccc(F)cc3)ncn2C2CCCCC2)n1 [PF670462, reference compound]	
	1.15e-06	0.91	9.98e-06	9.32e-09	Nc1nccc(-c2c(-c3ccc(F)cc3)ncn2C2CCC(F)(F)CC2)n1 [ZH3-138, 4-(1-(4,4-Difluorocyclohexyl)-4-(4-fluorophenyl)-1H-imidazol-5-yl)pyrimidin-2-amine]	20
